Assay results reported in patent US20080280860A1, “Use of Vitamin D Compounds to Treat Endometriosis” (BioXell S.p.A., priority 2005, published 2008).

Test system: endometriotic lesions
Test: In vivo model of endometriosis (lesion weight)
Set-up: species or system Balb/c mice
Protocol: Balb/c donor mice were injected with estrogen (Estradiol AMSA; 3 ug/mouse) and one week later were sacrificed and the uterus was removed, the two horns isolated and reduced to small fragments. The fragments derived from the isolated uterine horns were resuspended in saline with ampicillin (1 mg/ml) and then injected into the peritoneum of two recipient Balb/c mice, previously anesthesized, through a 0.5 cm incision in the abdominal wall. […] Antibiotic (ampicillin 1 mg/ml) was administered on the day of the surgery and on the day after. […] […] Lesions can be identified as translucid isolated or grouped cysts mainly found on the abdominal wall, on the pancreas, and around the uterus. In some cases the lesions are necrotic. The lesions were carefully removed and put on a glass slide to dry for 48 hours, and then were weighed. In other experiments lesions are transferred to a lysis solution and mRNA isolated for gene expression analysis. For immunohistochemical analysis, lesions were frozen immediately after isolation.
Balb/c donor mice were injected with estrogen (Estradiol AMSA; 3 ug/mouse) and one week later were sacrificed and the uterus was removed, the two horns isolated and reduced to small fragments. The fragments derived from the isolated uterine horns were resuspended in saline with ampicillin (1 mg/ml) and then injected into the peritoneum of two recipient Balb/c mice, previously anesthetised, through a 0.5 cm incision in the abdominal wall. Antibiotic (ampicillin 1 mg/ml) was administered on the day of the surgery and on the day after. […] Dosage levels of the test compounds were at the maximum tolerated levels for the compound in question, i.e. 1-alpha-fluoro-25-hydroxy-16,23E-diene-26,27-bishomo-20-epi-cholecalciferol (Compound A) 100 ug/kg, calcitriol (Compound B) 0.3 ug/kg and 1,25-dihydroxy-21-(3-hydroxy-3-methylbutyl)-19-nor-cholecalciferol (Compound C) 3 ug/kg.
[…] Lesions can be identified as translucid isolated or grouped cysts mainly found on the abdominal wall, on the pancreas, and around the uterus. In some cases the lesions are necrotic. The lesions were carefully removed and put on a glass slide to dry for 48 hours, and then were weighed.
Balb/c donor mice were injected with estrogen (Estradiol AMSA; 3 ug/mouse) and one week later were sacrificed and the uterus was removed, the two horns isolated and reduced to small fragments. The fragments derived from the isolated uterine horns were resuspended in saline with ampicillin (1 mg/ml) and then injected into the peritoneum of recipient Balb/c mice, previously anesthetised, through a 0.5 cm incision in the abdominal wall. Antibiotic (ampicillin 1 mg/ml) was administered on the day of the surgery and on the day after. […]
[…] Lesions can be identified as translucid isolated or grouped cysts mainly found on the abdominal wall, on the pancreas, and around the uterus. In some cases the lesions are necrotic. The lesions were carefully removed and put on a glass slide to dry for 48 hours, and then were weighed. At least 10 test animals were used in each group.
Further experiments were performed using Compound A at 100 ug/kg but varying the time at which administration of the vitamin D compound was initiated and the time point at which administration was ceased. Specifically: (i) administration for 1 week prior to injection of the uterine fragments (ii) administration for 2 weeks subsequent to injection of the uterine fragments (iii) administration for 1 week prior and 2 weeks subsequent to injection of the uterine fragments (iv) administration for 2 weeks, initiated two days subsequent to injection of the uterine fragments (v) administration for 2 weeks, initiated two weeks subsequent to injection of the uterine fragments. In these experiments, subjects were sacrificed at the later of two weeks post injection or the end of the treatment period as appropriate.

[1] = Example 3 dose/response, ip once a day, 5 days a week for two weeks, FIG. 7

## C=C1/C(=C\C=C2/CCC[C@]3(C)C([C@@H](C)C/C=C/C(O)(CC)CC)=CC[C@@H]23)C[C@@H](O)C[C@@H]1F [Compound A, 1-alpha-fluoro-25-hydroxy-16,23E-diene-26,27-bishomo-20-epi-cholecalciferol]
100 ug/kg, 2 weeks, initiated 2 weeks after uterus transfer, FIG. 8
  reduction in lesion weight, group (v): 34%
100 ug/kg, 2 weeks, initiated 2 days after uterus transfer, FIG. 8
  reduction in lesion weight, group (iv): 35%
100 ug/kg, administration for 1 week prior to injection of the uterine fragments, FIG. 8
  reduction in lesion weight, group (i): 40%
100 ug/kg, one week before and two weeks after uterus transfer, FIG. 8
  reduction in lesion weight, group (iii): 73%
100 ug/kg, two weeks starting at the time of uterus transfer, FIG. 8
  reduction in lesion weight, group (ii): 48%
Example 1, 100 ug/kg ip once a day, 5 days a week for two weeks, 17 pairs of mice, p=0.0034 paired, p=0.020 unpaired t test
  lesion weight, treated versus control (vehicle only): significant reduction in lesion weight
Example 2, 100 ug/kg ip once a day, 5 days a week for two weeks after uterus transfer, 24 mice per group
  lesion weight reduction between paired animals (mean ± standard error): 51±11%
Example 2, 100 ug/kg ip, two weeks, miglyol control 8.452±1.039 mg
  mean lesion weight: 3.527 ± 0.5400 mg
Example 2, each compound at its maximum tolerated level
  reduction in lesion weight compared with the other compounds tested: most pronounced
Example 2, each compound at its maximum tolerated level, ip once a day, 5 days a week for two weeks
  lesion weight, treated versus control (vehicle only), statistical analysis: significant reduction in lesion weight
[1]
  reduction in lesion weight at 1/10 MTD: approximately 20%
  reduction in lesion weight at around ⅓ MTD: approximately 35%
